Assay results: ChEMBL document CHEMBL1201862, “PubChem BioAssay data set” (2004)
Calls of active or inactive are those of the source.

Tests used:
Hexokinase HKDC1 = target: T1, Hexokinase HKDC1 (Homo sapiens, UniProt Q2TB90); assay: inhibition of HKDC1 glucose phosphorylation – biochemical, W721R variant, dose response (AID 504729); type: functional
T1 sequence (Q2TB90 whole entry): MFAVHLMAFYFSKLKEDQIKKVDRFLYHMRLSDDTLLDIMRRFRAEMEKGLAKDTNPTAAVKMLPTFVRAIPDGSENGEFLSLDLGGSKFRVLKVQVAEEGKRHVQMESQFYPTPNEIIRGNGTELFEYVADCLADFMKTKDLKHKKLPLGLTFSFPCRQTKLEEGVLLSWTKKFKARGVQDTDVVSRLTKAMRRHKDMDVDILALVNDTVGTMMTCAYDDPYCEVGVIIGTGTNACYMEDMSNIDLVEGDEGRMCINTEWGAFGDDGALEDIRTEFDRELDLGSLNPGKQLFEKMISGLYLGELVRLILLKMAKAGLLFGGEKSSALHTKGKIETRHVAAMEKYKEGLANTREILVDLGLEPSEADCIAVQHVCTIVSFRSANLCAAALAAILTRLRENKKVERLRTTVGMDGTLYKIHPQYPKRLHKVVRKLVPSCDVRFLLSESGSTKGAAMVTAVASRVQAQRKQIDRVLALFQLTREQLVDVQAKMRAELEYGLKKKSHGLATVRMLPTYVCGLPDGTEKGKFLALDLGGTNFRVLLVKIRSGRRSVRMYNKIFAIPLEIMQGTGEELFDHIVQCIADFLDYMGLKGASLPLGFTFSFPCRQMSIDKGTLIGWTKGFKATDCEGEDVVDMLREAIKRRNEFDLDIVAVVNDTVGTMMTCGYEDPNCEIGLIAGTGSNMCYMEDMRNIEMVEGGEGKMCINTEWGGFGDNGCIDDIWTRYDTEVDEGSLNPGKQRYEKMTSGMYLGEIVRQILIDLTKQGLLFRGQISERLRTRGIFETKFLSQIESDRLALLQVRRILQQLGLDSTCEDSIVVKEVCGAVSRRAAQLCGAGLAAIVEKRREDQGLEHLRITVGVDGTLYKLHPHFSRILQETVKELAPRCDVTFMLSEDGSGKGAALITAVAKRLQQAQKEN

Estrogen receptor = target: T2, Estrogen receptor (Homo sapiens, UniProt P03372);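 also: potency for inhibiting coactivator peptide recruitment to the receptor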
T2 sequence (P03372 whole entry): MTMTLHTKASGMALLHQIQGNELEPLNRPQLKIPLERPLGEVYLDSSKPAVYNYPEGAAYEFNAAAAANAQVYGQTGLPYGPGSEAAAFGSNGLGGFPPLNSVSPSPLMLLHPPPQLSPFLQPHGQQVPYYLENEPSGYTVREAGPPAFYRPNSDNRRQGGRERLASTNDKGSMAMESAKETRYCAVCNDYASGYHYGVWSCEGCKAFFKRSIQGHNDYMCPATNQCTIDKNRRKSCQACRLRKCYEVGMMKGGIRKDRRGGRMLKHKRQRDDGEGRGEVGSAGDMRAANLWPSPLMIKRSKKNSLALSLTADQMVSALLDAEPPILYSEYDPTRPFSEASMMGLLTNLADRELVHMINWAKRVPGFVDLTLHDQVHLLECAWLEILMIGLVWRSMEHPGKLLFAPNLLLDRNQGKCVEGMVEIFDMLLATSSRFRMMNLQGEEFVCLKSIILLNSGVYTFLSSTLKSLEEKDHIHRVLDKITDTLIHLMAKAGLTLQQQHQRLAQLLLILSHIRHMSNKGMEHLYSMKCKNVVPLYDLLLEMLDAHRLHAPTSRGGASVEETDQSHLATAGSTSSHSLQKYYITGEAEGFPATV

Estrogen receptor beta = Estrogen receptor beta (Homo sapiens, UniProt Q92731);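 also: recombinant ER-beta bound to coactivator SRC1 peptide in presence of estradiol agonist; inhibitors block coactivator peptide binding and lower the FRET signal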
Sequence of Estrogen receptor beta (Q92731 whole entry): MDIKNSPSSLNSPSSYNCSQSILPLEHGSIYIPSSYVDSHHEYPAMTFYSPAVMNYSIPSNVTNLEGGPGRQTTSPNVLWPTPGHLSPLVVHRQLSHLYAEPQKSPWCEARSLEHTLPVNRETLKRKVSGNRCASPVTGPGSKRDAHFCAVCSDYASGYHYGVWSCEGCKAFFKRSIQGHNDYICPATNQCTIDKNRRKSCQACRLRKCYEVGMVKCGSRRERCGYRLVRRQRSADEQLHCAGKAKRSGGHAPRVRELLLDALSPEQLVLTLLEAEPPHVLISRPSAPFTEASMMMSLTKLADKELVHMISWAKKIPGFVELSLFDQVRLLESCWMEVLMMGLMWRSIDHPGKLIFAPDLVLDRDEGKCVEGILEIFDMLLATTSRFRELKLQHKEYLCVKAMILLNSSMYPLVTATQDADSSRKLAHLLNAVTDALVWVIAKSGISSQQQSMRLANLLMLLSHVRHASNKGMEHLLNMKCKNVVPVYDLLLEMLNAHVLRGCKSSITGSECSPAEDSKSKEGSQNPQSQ

cells = type: functional
[1] = viability of HCT116 lacking mutant beta-catenin – cell-based, human colon tumor, dose response (AID 1045); type: functional;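 also: HCT116 colon tumor cells with beta catenin knocked out; cells exposed to compound for 60 hours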
[2] = HepG2 cell cytotoxicity, dose response, cytotoxicity control for non-replicating M. tuberculosis project (AID 489018); type: functional; details: Mycobacterium tuberculosis
[3] = viability of PTEN-deleted HCT116 cells – cell-based, HCT116 PTEN knockout, dose response (AID 1047); type: functional;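 also: HCT116 colon tumor cells with PTEN knocked out; cells exposed to compound for 60 hours before readout; potency for loss of cell viability measured by luminescence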
[4] = Vero E6 cell cytotoxicity, dose response, cytotoxicity control for non-replicating M. tuberculosis project, secondary assay (AID 492998); type: functional, VeroE6; details: Vero C1008
[5] = THP-1 cell cytotoxicity, dose response, cytotoxicity control for non-replicating M. tuberculosis project (AID 489025); type: functional
[6] = A cytotoxicity screen of small molecule inhibitors of the PhoP region in Salmonella typhi identified in the primary screen. [Related pubchem assays: 1850, 1864, 1985 ]; type: functional
[7] = target: Glyceraldehyde-3-phosphate dehydrogenase (Homo sapiens, UniProt P04406)
Sequence of Glyceraldehyde-3-phosphate dehydrogenase (P04406 whole entry): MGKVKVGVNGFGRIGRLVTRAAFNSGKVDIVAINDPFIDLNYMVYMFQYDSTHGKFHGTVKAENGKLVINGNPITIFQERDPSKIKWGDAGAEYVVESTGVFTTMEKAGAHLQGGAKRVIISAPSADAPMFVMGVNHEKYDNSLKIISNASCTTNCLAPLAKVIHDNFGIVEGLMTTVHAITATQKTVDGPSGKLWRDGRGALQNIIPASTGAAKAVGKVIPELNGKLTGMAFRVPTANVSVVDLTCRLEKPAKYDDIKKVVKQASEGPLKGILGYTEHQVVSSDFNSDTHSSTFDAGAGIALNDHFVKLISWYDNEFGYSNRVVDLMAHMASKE

[8] = target: T3, Alkaline phosphatase, tissue-nonspecific isozyme (Homo sapiens, UniProt P05186); assay: potency against alkaline phosphatase TNAP – biochemical, luminescent, dose response, SAR follow-up (AID 1056)
T3 sequence (P05186 whole entry): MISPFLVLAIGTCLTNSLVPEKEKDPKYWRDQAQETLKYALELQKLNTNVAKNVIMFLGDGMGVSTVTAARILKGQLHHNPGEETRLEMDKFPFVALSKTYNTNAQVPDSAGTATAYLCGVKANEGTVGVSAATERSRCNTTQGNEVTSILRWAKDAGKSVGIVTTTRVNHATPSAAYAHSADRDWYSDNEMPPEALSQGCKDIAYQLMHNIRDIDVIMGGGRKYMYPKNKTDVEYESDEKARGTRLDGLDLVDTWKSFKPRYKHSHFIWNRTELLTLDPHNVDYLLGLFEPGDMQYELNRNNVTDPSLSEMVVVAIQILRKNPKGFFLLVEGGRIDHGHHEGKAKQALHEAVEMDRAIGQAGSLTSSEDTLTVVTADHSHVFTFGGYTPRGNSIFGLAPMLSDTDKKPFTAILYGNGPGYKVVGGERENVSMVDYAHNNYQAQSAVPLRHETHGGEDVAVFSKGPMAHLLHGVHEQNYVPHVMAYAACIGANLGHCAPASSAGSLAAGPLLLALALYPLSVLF

[9] = target: Alkaline phosphatase, placental type (Homo sapiens, UniProt P05187); assay: human placental alkaline phosphatase inhibition – biochemical, luminescence, confirmation (AID 1512); type: functional
Sequence of Alkaline phosphatase, placental type (P05187 whole entry): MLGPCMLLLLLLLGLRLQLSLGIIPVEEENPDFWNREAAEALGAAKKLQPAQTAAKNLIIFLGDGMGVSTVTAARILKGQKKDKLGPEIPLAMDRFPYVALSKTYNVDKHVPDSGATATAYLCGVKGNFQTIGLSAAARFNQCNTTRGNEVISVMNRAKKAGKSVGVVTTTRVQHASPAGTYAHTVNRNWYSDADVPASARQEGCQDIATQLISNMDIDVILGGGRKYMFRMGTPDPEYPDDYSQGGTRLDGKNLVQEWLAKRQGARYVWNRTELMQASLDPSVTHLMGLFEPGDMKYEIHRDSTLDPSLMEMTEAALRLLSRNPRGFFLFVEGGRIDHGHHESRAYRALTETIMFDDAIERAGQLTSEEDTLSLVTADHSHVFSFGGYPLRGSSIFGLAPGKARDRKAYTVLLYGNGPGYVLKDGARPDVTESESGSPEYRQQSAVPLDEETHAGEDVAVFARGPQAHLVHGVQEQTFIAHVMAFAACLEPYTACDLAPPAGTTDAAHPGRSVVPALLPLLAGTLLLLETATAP

Protein RecA = target: T4, Protein RecA (Mycobacterium tuberculosis, UniProt P9WHJ3); assay: Fluorescence Cell-Free Homogeneous Dose Retest to Identify Inhibitors of RecA-Intein Splicing Activity. [Related pubchem assays (depositor defined):AID2097, AID2223, AID489010, AID492950]; type: functional
T4 sequence (P9WHJ3 whole entry): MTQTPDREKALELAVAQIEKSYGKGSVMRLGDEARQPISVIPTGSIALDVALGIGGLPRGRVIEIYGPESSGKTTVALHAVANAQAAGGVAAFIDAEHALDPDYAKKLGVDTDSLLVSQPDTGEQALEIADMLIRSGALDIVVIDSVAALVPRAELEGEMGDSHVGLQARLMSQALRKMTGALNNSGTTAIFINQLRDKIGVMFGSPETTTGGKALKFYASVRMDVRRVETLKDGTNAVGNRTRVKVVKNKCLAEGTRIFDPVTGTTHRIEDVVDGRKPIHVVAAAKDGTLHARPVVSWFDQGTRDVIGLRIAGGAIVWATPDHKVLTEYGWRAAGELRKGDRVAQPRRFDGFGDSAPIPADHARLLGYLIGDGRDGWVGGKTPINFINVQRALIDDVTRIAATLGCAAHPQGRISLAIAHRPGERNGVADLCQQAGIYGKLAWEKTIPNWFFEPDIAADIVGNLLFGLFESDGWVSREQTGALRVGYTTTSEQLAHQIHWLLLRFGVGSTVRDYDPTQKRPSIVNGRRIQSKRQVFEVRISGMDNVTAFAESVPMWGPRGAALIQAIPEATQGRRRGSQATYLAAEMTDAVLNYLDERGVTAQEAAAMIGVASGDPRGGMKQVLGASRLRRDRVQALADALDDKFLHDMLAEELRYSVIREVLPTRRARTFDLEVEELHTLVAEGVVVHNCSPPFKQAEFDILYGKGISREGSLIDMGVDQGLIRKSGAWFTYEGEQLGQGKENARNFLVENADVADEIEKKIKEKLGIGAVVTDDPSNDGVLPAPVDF

[10] = target: T5, Replicative DNA helicase DnaB (Mycobacterium tuberculosis, UniProt P9WMR3); assay: DnaB intein splicing inhibitors, dose response, biochemical, cell-free fluorescence (AID 449749); type: functional
T5 sequence (P9WMR3 whole entry): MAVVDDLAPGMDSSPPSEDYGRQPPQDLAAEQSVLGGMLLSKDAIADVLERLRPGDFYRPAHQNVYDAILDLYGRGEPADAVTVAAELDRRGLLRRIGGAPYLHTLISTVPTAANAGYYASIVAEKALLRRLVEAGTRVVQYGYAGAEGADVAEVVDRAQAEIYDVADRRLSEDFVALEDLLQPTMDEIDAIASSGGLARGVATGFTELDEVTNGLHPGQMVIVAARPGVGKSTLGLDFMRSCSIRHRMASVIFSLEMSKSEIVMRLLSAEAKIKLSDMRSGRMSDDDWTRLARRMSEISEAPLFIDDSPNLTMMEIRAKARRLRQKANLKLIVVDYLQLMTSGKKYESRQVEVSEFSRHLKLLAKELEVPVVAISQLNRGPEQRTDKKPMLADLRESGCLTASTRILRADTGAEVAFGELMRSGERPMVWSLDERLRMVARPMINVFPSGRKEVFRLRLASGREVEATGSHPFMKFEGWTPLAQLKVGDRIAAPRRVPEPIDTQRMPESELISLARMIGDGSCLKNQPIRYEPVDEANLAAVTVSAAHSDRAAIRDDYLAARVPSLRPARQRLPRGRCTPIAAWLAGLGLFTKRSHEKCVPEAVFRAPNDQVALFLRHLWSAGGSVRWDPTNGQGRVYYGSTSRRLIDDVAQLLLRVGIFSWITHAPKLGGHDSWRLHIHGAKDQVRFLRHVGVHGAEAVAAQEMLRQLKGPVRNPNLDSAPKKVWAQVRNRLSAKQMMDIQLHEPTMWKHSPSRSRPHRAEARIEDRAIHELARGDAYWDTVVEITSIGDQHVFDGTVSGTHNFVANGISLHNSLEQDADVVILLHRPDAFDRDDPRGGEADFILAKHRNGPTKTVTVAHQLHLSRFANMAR

[11] = target: G2/mitotic-specific cyclin-B1 (Homo sapiens, UniProt P14635); assay: HeLa cell cycle G2/M accumulation – FACS, mechanism study for Wee1 degradation inhibitor project, late-stage follow-up, panel member Cyclin B Degradation (AID 2088)
Sequence of G2/mitotic-specific cyclin-B1 (P14635 whole entry): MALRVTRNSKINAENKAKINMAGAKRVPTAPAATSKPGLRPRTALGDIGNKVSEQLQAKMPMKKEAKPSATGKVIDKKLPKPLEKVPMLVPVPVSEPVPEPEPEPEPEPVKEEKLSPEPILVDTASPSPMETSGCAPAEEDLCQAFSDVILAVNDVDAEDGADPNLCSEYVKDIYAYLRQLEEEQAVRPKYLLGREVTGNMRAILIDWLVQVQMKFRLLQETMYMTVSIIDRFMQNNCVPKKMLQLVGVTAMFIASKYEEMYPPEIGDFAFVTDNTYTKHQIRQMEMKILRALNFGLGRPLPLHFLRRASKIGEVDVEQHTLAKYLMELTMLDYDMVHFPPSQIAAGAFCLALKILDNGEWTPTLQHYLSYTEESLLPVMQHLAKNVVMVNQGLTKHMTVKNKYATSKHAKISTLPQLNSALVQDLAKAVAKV

Wee1-like protein kinase = Wee1-like protein kinase (Homo sapiens, UniProt P30291); assay: HeLa cell cycle G2/M accumulation – FACS, mechanism study for Wee1 degradation inhibitor project, late-stage follow-up, panel member Wee1 Degradation (AID 2088)
Sequence of Wee1-like protein kinase (P30291 whole entry): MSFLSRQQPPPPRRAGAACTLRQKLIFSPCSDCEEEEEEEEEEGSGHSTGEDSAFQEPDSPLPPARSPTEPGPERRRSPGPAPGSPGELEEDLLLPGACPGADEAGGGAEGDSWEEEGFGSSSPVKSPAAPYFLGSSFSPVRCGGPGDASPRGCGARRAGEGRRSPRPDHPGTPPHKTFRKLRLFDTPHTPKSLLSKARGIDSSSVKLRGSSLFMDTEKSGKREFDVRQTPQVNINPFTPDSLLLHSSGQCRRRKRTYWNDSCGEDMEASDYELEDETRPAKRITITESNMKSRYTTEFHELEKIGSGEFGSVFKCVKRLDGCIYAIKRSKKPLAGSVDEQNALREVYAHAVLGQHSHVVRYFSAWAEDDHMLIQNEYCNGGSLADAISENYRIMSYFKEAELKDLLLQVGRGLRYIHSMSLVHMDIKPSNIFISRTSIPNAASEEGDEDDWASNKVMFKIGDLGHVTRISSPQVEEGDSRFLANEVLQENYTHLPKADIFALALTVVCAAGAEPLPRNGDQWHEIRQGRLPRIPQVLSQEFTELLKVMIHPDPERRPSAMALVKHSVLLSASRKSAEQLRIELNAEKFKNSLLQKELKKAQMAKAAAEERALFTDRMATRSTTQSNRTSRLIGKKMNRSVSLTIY

Cc1nc2c(c(=O)c3ccccc3n2C)c(=O)n1-c1ccc(F)cc1
IC50 (Hexokinase HKDC1): 8.25 µM (active)

CCOC(=O)c1c(C)oc2c1c(C(c1cccnc1)N1CCCCC1)c(O)c1ccccc12 (stereo not drawn)
IC50 (Estrogen receptor): > 50 µM (not active) | IC50 (Estrogen receptor beta): > 50 µM (not active)

CCOc1cc(CNC(C)(C)CO)cc(Br)c1OCc1ccc(Cl)cc1Cl
IC50 (cells): 10.5 µM (active) | EC50 [1]: 6.52 µM (active) | CC50 [2]: 13.7 µM (active) | EC50 [3]: 7.54 µM (active) | CC50 [4]: 7.44 µM (active) | CC50 [5]: 13.4 µM (active)

COc1ccc2nc(NC(=O)C3CC(=O)N(c4ccccc4)C3)sc2c1 (stereo not drawn)
EC50 [6]: > 50 µM (active)

COc1ccccc1-c1nnc(SC)[nH]1
IC50 [7]: > 100 µM (not active) | IC50 [8]: 7.95 µM (active) | IC50 [9]: > 100 µM (inactive)

CN1CCc2nc(SCC(=O)Nc3ccc(F)cc3)c(C#N)cc2C1
IC50 (Estrogen receptor): > 50 µM (not active) | EC50 (Protein RecA): 38 µM (active) | AC50 [10]: > 380 µM (inactive)

Cc1ccc(NC(=O)OCc2cccs2)cc1
EC50 [6]: > 50 µM (active)

OCCSc1n[nH]c(-c2ccccc2)n1
IC50 [7]: > 100 µM (not active) | IC50 [8]: 16.2 µM (active) | IC50 [9]: > 100 µM (inactive)

Cc1cc(C)n2cc(CSc3nnc(-c4ccccc4)c(-c4ccccc4)n3)nc2n1
IC50 (Hexokinase HKDC1): 12.5 µM (active)

[O-][n+]1onc2c3cc(-c4ccccc4)[nH]c3ccc21
EC50 [11]: > 55.7 µM (inactive) | EC50 (Wee1-like protein kinase): > 6.19 µM (active)

Cc1cc(O)nc(-n2nc(C)cc2NC(=O)Cc2ccccc2)n1
EC50 [11]: > 49.7 µM (inactive) | EC50 (Wee1-like protein kinase): > 49.7 µM (inactive)

Cc1cc(O)nc(-n2nc(C)cc2NC(=O)c2cccc(Cl)c2)n1
EC50 [11]: > 49.7 µM (inactive) | EC50 (Wee1-like protein kinase): > 49.7 µM (inactive)

CC1(C)N=C(N)N=C(Nc2cccc(Br)c2)N1
EC50 [6]: > 50 µM (active)
